Where two headings read alike, the source gives them in different places.
Tests used:
[1] = system: H. pylori strain M91 (MTZ + CLR resistant); assay: Growth curve method / MIC, resistant strain M91; format: cell-based, Helicobacter pylori; settings: Helicobacter pylori, strain M91, MTZ + CLR resistant
Procedure: The representative PNP inhibitor from H. pylori included in this study was immucillin A. The experiment was conducted using the growth curve method (two-fold serial dilutions in liquid medium). The tested H. pylori strains were cultured in Petri dishes with BHI solid medium supplemented with 10% FBS and 1% H. pylori Selective Supplement antibiotic kit, in anaerostats under microaerophilic conditions (5% 02, 10% CO2, 85% N2) at 37° C. for 3 days. Liquid culture of H. pylori was conducted overnight with shaking at 37° C. under microaerophilic conditions in BHI medium supplemented with 10% FBS and 1% H. pylori Selective Supplement antibiotic kit. Subsequently, for the essential experiment of determining the minimum inhibitory concentration (MIC), double strengthened liquid BHI medium was prepared, that is, supplemented with 20% FBS and a 2% set of H. pylori Selective Supplement antibiotics.
Bacterial proliferation inhibition experiments were carried out in 24-deep-well 2 ml flat-bottomed plates at a solution volume per well of 0.5 ml. In a single well, double strengthened (relative to the concentration planned for testing) solutions of the test inhibitor and double strengthened liquid BHI medium inoculated with H. pylori (10^4-10^5 CFU/ml in the final volume in the well, corresponding to the optical density of the culture OD600=0.05) were mixed together in a 1:1 ratio.
Kanamycin at a concentration of 25 μg/ml (Irie et al., 1997) was used as a positive control, while Mili-Q deionized water and BHI medium not inoculated with bacteria were used as negative controls. Plates were shaken at 37° C., under microaerophilic conditions. […] After 24 hours, the OD600 of samples containing the negative control, i.e. with Mili-Q deionized water, was about 1.2-1.4, corresponding to a bacterial concentration of about […].
In addition, the method proposed by Knezevic et al. (2018) was used to check whether the observed OD600 was from live bacterial cells. For this purpose, an equal volume of Christensen's double strength urea broth (that is, containing twice the concentration of all components) was added to the wells after incubation, and the plates were additionally incubated for 4 hours in an oxygen atmosphere at 37° C. During incubation, in wells with urease produced by live bacteria, urea is converted to ammonia and carbon dioxide, changing the pH of the solution and thus the colour of the phenol red indicator contained in the medium (from orange to purple).
All experiments were performed in triplicate.
The antibacterial activity of two compounds, mefloquine (in the form of hydrochloride) and quinine, described in the literature as potent in vitro inhibitors of the PNP enzyme from Plasmodium falciparum (Dziekan et al., 2019), was tested. Using a two-fold serial dilution method in liquid medium (as described in Example 3), the MIC values for mefloquine and quinine were determined against clinical H. pylori strains resistant to MTZ, CLR and MTZ+CLR (M26, M91, M92 and M93), as well as the reference H. pylori strain 26695. Four clinical H. pylori strains isolated from adults, from primary infections (the subjects had never previously been treated against H. pylori infection) were tested. These strains come from the collection of the Department of Microbiology of the Medical University of Wroclaw and were obtained due to collaboration with Prof. Grażyna Gościniak, MD, PhD. The tested compounds belong to organic substances and are soluble in DMSO. The maximum tested concentration of quinine in H. pylori culture was 0.56 mM, and that of mefloquine was 2.25 mM. […] On each occasion, the effect of DMSO alone on the growth of the H. pylori strains tested was also checked. […] Kanamycin was used as a positive control and Mili-Q deionised water as a negative control. All experiments were carried out in triplicate. […]

[2] = target: T1, AdSS from H. pylori strain 26695 (Helicobacter pylori, UniProt P56137); assay: AdSS enzyme activity assay (adenylosuccinate formation, 280 nm); format: biochemical; settings: for AdSS activity after incubation: 1.23 U/mg in the absence of PLP
T1 construct: made in house; host or cells: E. coli BL21 (DE3)
T1 sequence (P56137 1-411): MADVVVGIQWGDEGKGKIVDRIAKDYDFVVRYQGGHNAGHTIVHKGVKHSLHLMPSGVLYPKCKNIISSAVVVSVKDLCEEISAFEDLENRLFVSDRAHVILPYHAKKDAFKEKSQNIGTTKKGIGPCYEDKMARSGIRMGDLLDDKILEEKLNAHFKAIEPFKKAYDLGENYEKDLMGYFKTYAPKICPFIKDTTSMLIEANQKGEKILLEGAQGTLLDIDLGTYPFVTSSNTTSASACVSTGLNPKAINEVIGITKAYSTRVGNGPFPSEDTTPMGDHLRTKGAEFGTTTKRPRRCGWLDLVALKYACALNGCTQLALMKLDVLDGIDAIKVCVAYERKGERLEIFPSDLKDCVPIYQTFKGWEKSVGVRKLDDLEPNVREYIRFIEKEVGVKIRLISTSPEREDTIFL
Procedure: Enzymatic activity measurements were carried out in the similar manner as described in Bubić et al. (2018), at 25° C., in cuvettes with an optical path length of 1 cm containing 1 ml of reaction mixture consisting of 20 mM Hepes/NaOH buffer pH 7.7, 1 mM MgSO4 and the substrates, GTP, IMP and Asp. Saturating concentrations of substrates, namely GTP: 0.06 mM, IMP: 0.15 mM and Asp: 5 mM, were used to measure specific activity. The extinction coefficient at 280 nm of 1.17×10^4 M^−1 cm^−1 (adenylosuccinate formation) was used to calculate the concentration of the product formed (Rudolph and Fromm 1969). One unit (U) of AdSS specific activity is defined as μmol of adenylosuccinate produced per minute at 25° C. Specific activity is expressed as units of enzymatic activity per mg of protein (U/mg).
Inhibition of AdSS by PLP was examined first at saturation with all enzyme substrates and with increasing concentrations of the PLP inhibitor.
To determine the extent to which PLP-induced inactivation develops over time, the enzyme at low concentration (0.022 μM) was incubated at 25° C. in Hepes/NaOH buffer pH 7.0, in the presence of 1.11 mM MgSO4, 5.55 mM Asp, 167 μM IMP and PLP at various concentrations (ranging between 0.03 μM and 8.1 μM). The mixture contained all components necessary for the reaction with the exception of GTP, which, according to Dong and Fromm (1990), competes with PLP. Aliquots of 900 μl were taken from the incubated mixture at specified time intervals, placed in a cuvette and 100 μl of 0.6 mM GTP solution was added to initiate the reaction. The enzyme activity was determined and analysed in the known manner as described above.
Exponential decays were fitted to the data obtained for each concentration and the reaction rate constant of the inactivation process, k, and the residual enzymatic activity observed when the system reached equilibrium, A∞, were obtained as fitting parameters. From these parameters, the half-life of the inactivation process activity, t1/2, was calculated. The dependence of these three parameters on PLP concentration is shown in the lower panel of FIG. 12.
The inhibition of AdSS from H. pylori by pyridoxal (PI-h) was studied at saturation with all enzyme substrates and with increasing concentrations of the inhibitor, similar to that for PLP in Example 10a).

[3] = 8.1 μM PLP, about 10 minutes of incubation without GTP

SMILES | MIC ([1]; read-out: MIC) [µg/mL] | MIC ([1]; read-out: MIC (Table 7)) [µM] | effect on AdSS activity ([2]; 400 μM (maximum used), saturating substrates) | IC50 [2] [µM] | AdSS activity after incubation ([2]; 0.03 μM PLP, about 4 hours of incubation without GTP) [U/mg] | inactivation of AdSS ([2]; 0.03 μM PLP, enzyme 0.022 μM incubated without GTP, 25° C.) | inactivation of the enzyme ([2]; 1 μM PLP, incubation without GTP) [%] | decrease in AdSS activity [2, 3] | AdSS activity after incubation [2, 3] [U/mg] | decrease of enzyme activity ([2]; PLP above about 100 μM, saturating substrates, 25° C., pH 7.7) [%]
Cc1ncc(CO)c(C=O)c1O.Cl [PI-h, pyridoxal hydrochloride] | 255 | 1.25 | no effect on AdSS activity | – | – | – | – | – | – | –
Cc1ncc(COP(=O)(O)O)c(C=O)c1O [PLP, pyridoxal 5′-phosphate] | 309 to 618 | 1.25 to 2.5 | – | 13.3 | 0.48 | more than 50% | 90 | about 97% | 0.04 | 86
